T1: cynomolgus PD-1 (cynomolgus)
T1 chain: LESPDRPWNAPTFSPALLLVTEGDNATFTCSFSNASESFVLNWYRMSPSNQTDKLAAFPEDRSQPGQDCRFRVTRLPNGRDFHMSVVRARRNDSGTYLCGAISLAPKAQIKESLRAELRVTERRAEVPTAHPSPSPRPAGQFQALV


Experiments:
[1] = system: cells expressing human or cynomolgus PD-1; settings: human versus cynomolgus PD-1; cited from earlier work
cynomolgus PD-1 = target: T1, cynomolgus PD-1; test: kinetic analysis (bio-light interferometry)

Row | Kd (cynomolgus PD-1) | Molecule | blocking of binding of human PD-1 ligands to cells expressing human or cynomolgus PD-1 [1]
1 |  | pembrolizumab: monoclonal IgG4 kappa antibody that binds the PD-1 receptor and blocks its interaction with PD-L1 and PD-L2 | comparable potency
2 | 0.118 nM | Pembrolizumab (antibody, human IgG4 S228P, kappa, V domains shown, also called MK3475) VH: QVQLVQSGVEVKKPGASVKVSCKASGYTFTNYYMYWVRQAPGQGLEWMGGINPSNGGTNFNEKFKNRVTLTTDSSTTTAYMELKSLQFDDTAVYYCARRDYRFDMGFDYWGQGTTVTVSS VL: EIVLTQSPATLSLSPGERATLSCRASKGVSTSGYSYLHWYQQKPGQAPRLLIYLASYLESGVPARFSGSGSGTDFTLTISSLEPEDFAVYYCQHSRDLPLTFGGGTKVEIKR | 
